Results taken from PMC9744290, “Two apicoplast dwelling glycolytic enzymes provide key substrates for metabolic pathways in the apicoplast and are critical for Toxoplasma growth” (PLOS Pathogens, 2022).

Target: T1, PGK2 (Toxoplasma gondii, UniProt A0A7J6KGR7)
T1 construct: gene TGRH88_001020; His-SUMO fusion, E. coli BL21(DE3), His-tag resin
T1 sequence (A0A7J6KGR7 1-593): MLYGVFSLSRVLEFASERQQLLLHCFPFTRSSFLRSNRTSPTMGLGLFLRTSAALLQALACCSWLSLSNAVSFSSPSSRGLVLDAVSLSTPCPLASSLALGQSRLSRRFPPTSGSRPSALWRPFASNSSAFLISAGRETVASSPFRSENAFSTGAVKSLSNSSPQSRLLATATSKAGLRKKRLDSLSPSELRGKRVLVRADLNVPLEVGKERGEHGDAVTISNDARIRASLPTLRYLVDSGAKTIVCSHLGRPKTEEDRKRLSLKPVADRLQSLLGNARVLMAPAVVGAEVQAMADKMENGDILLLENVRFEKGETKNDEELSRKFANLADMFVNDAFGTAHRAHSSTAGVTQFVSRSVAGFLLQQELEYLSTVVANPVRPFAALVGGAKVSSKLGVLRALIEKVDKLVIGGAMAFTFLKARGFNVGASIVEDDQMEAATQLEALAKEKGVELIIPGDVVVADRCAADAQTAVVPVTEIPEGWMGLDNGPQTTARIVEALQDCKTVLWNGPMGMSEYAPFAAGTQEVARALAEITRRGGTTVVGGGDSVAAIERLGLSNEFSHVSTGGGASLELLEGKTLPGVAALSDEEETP
Experiment: NADH-coupled colorimetric PGK assay kit, OD340
Assay type: biochemical
Conditions: reverse direction of PGK; 0-960 uM substrate, 5 ug/ml enzyme, 2 min

O=C(O)[C@H](O)COP(=O)(O)O [3-phosphoglycerate]
NADH-coupled colorimetric PGK assay kit, OD340: assayed with recombinant enzymes under different concentrations of 3-phosphoglycerate (3-PG)
